Results: PubChem BioAssay AID2060897 (Molecular Pharmacology Branch, DTP, NCI, 2025)

Test system: 966289-007-R4-J1-PDC complex spheroid viability
Experiment: Anticancer human tumor 966289-007-R4-J1-PDC patient-derived pancreatic adenocarcinoma cell line growth inhibition [RAS]
Settings: for IC50: curve of first compound; for viability, T/C: stronger effect = lower value; active means viability on the fitted dose curve at most 10% of control; inactive means the rest
How it was run: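 Agents were tested in combination matrices in half-log decrements from a top concentration at or near clinical Cmax (10 microM if undetermined). Targets were multi-cell spheroids of tumour lines plus HUVEC and MSC stromal cells.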

[1] = second compound 0.000949 µM, first compound 0.0316 µM
[2] = second compound 0.000949 µM, first compound 0.1 µM
[3] = second compound 0.000949 µM, first compound 0.316 µM
[4] = second compound 0.000949 µM, first compound 1 µM
[5] = second compound 0.000949 µM, first compound 3.16 µM
[6] = second compound 0.000949 µM, first compound 10 µM
[7] = second compound 0.003 µM, first compound 0.0316 µM
[8] = second compound 0.003 µM, first compound 0.1 µM
[9] = second compound 0.003 µM, first compound 0.316 µM
[10] = second compound 0.003 µM, first compound 1 µM
[11] = second compound 0.003 µM, first compound 3.16 µM
[12] = second compound 0.003 µM, first compound 10 µM
[13] = second compound 0.00949 µM, first compound 0.0316 µM
[14] = second compound 0.00949 µM, first compound 0.1 µM
[15] = second compound 0.00949 µM, first compound 0.316 µM
[16] = second compound 0.00949 µM, first compound 1 µM
[17] = second compound 0.00949 µM, first compound 3.16 µM
[18] = second compound 0.00949 µM, first compound 10 µM
[19] = second compound 0.03 µM, first compound 0.0316 µM
[20] = second compound 0.03 µM, first compound 0.1 µM
[21] = second compound 0.03 µM, first compound 0.316 µM
[22] = second compound 0.03 µM, first compound 1 µM
[23] = second compound 0.03 µM, first compound 3.16 µM
[24] = second compound 0.03 µM, first compound 10 µM
[25] = second compound 0.0949 µM, first compound 0.0316 µM
[26] = second compound 0.0949 µM, first compound 0.1 µM
[27] = second compound 0.0949 µM, first compound 0.316 µM
[28] = second compound 0.0949 µM, first compound 1 µM
[29] = second compound 0.0949 µM, first compound 3.16 µM
[30] = second compound 0.0949 µM, first compound 10 µM
[31] = second compound 0.3 µM, first compound 0.0316 µM
[32] = second compound 0.3 µM, first compound 0.1 µM
[33] = second compound 0.3 µM, first compound 0.316 µM
[34] = second compound 0.3 µM, first compound 1 µM
[35] = second compound 0.3 µM, first compound 3.16 µM
[36] = second compound 0.3 µM, first compound 10 µM
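Further: spheroids exposed to agents for one week before readout.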
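Wherever viability, T/C is given: percent viability relative to DMSO vehicle control wells as 100%.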

Cc1nc(N2CCC3(CC2)COC(C)C3N)c(CO)nc1Sc1ccnc(N)c1Cl (stereo unspecified) + CCn1c(-c2cc(N3CCN(C)CC3)cnc2C(C)OC)c2c3cc(ccc31)-c1csc(n1)CC(NC(=O)C1CC1C)C(=O)N1CCCC(N1)C(=O)OCC(C)(C)C2
inactive: viability, T/C [1] 130% | viability, T/C [2] 121% | viability, T/C [3] 107% | viability, T/C [4] 85.4% | viability, T/C [5] 93.8% | viability, T/C [6] 115% | viability, T/C [7] 114% | viability, T/C [8] 92.9% | viability, T/C [9] 94.1% | viability, T/C [10] 86.7% | viability, T/C [11] 81.5% | viability, T/C [12] 97.1% | viability, T/C [13] 106% | viability, T/C [14] 99.2% | viability, T/C [15] 84.4% | viability, T/C [16] 122% | viability, T/C [17] 86.1% | viability, T/C [18] 97.7% | viability, T/C [19] 87.4% | viability, T/C [20] 69.8% | viability, T/C [21] 102% | viability, T/C [22] 107% | viability, T/C [23] 79.9% | viability, T/C [24] 102% | viability, T/C [25] 75.6% | viability, T/C [26] 131% | viability, T/C [27] 86.9% | viability, T/C [28] 119% | viability, T/C [29] 113% | viability, T/C [30] 117% | viability, T/C [31] 92.3% | viability, T/C [32] 88.6% | viability, T/C [33] 110% | viability, T/C [34] 108% | viability, T/C [35] 111% | viability, T/C [36] 103%
> 10 µM: IC50 (second compound 0.000949 µM) | IC50 (second compound 0.003 µM) | IC50 (second compound 0.00949 µM) | IC50 (second compound 0.03 µM) | IC50 (second compound 0.0949 µM) | IC50 (second compound 0.3 µM)

NC1c2ccccc2OC12CCN(c1cnc3c(N4CCCc5ncccc54)n[nH]c3n1)CC2 (stereo unspecified) + CCn1c(-c2cc(N3CCN(C)CC3)cnc2C(C)OC)c2c3cc(ccc31)-c1csc(n1)CC(NC(=O)C1CC1C)C(=O)N1CCCC(N1)C(=O)OCC(C)(C)C2
> 10 µM: IC50 (second compound 0.000949 µM) | IC50 (second compound 0.003 µM) | IC50 (second compound 0.00949 µM) | IC50 (second compound 0.03 µM) | IC50 (second compound 0.0949 µM) | IC50 (second compound 0.3 µM)
inactive: viability, T/C [1] 88.7% | viability, T/C [2] 84% | viability, T/C [3] 117% | viability, T/C [4] 104% | viability, T/C [5] 123% | viability, T/C [6] 85% | viability, T/C [7] 121% | viability, T/C [8] 93% | viability, T/C [9] 88.9% | viability, T/C [10] 95.2% | viability, T/C [11] 105% | viability, T/C [12] 109% | viability, T/C [13] 106% | viability, T/C [14] 103% | viability, T/C [15] 88.5% | viability, T/C [16] 111% | viability, T/C [17] 97.1% | viability, T/C [18] 89.9% | viability, T/C [19] 78.9% | viability, T/C [20] 88.8% | viability, T/C [21] 103% | viability, T/C [22] 105% | viability, T/C [23] 119% | viability, T/C [24] 69.7% | viability, T/C [25] 103% | viability, T/C [26] 122% | viability, T/C [27] 105% | viability, T/C [28] 117% | viability, T/C [29] 92.8% | viability, T/C [30] 88.4% | viability, T/C [31] 103% | viability, T/C [32] 88.1% | viability, T/C [33] 96.8% | viability, T/C [34] 97.3% | viability, T/C [35] 91.2% | viability, T/C [36] 137%

Nc1ccn(C2OC(CO)C(O)C2(F)F)c(=O)n1 (stereo unspecified) + CCn1c(-c2cc(N3CCN(C)CC3)cnc2C(C)OC)c2c3cc(ccc31)-c1csc(n1)CC(NC(=O)C1CC1C)C(=O)N1CCCC(N1)C(=O)OCC(C)(C)C2
0.0062 µM: IC50 (second compound 0.00949 µM)
0.0125 µM: IC50 (second compound 0.3 µM)
0.00604 µM: IC50 (second compound 0.000949 µM)
inactive: viability, T/C (second compound 0.000949 µM, first compound 0.00316 µM) 97.8% | viability, T/C (second compound 0.000949 µM, first compound 0.01 µM) 12.9% | viability, T/C (second compound 0.003 µM, first compound 0.00316 µM) 102% | viability, T/C (second compound 0.003 µM, first compound 0.01 µM) 14.8% | viability, T/C (second compound 0.00949 µM, first compound 0.00316 µM) 101% | viability, T/C (second compound 0.00949 µM, first compound 0.01 µM) 13.7% | viability, T/C (second compound 0.03 µM, first compound 0.00316 µM) 97% | viability, T/C (second compound 0.03 µM, first compound 0.01 µM) 19.3% | viability, T/C (second compound 0.0949 µM, first compound 0.00316 µM) 97.2% | viability, T/C (second compound 0.0949 µM, first compound 0.01 µM) 28.2% | viability, T/C (second compound 0.3 µM, first compound 0.00316 µM) 97.6% | viability, T/C (second compound 0.3 µM, first compound 0.01 µM) 61.5%
0.00634 µM: IC50 (second compound 0.03 µM)
0.0063 µM: IC50 (second compound 0.003 µM)
0.00696 µM: IC50 (second compound 0.0949 µM)
active: viability, T/C [1] 1.26% | viability, T/C [2] 0.95% | viability, T/C [3] 1.14% | viability, T/C [4] 1.37% | viability, T/C [7] 1.26% | viability, T/C [8] 1.21% | viability, T/C [9] 1.3% | viability, T/C [10] 1.36% | viability, T/C [13] 1.25% | viability, T/C [14] 1.19% | viability, T/C [15] 1.09% | viability, T/C [16] 1.04% | viability, T/C [19] 1.26% | viability, T/C [20] 1.2% | viability, T/C [21] 1.06% | viability, T/C [22] 1.12% | viability, T/C [25] 1.31% | viability, T/C [26] 1.32% | viability, T/C [27] 1.4% | viability, T/C [28] 1.29% | viability, T/C [31] 2.02% | viability, T/C [32] 1.27% | viability, T/C [33] 1.51% | viability, T/C [34] 1.21%
